Measurements: patent publication US20070254313A1, “Gnal Splice Variant and Uses Thereof” (AstraZeneca AB, priority 2003, published 2007)

Molecular target: T1, human adenosine A2a receptor (Homo sapiens, UniProt P29274)
T1 construct: β1 and γ2 baculoviruses from PerkinElmer Biosignal; host or cells: Sf9 insect cells infected with recombinant baculoviruses; membranes
Assay: Agonist-induced [35S]-GTPγS binding assay on A2a receptor, Sf9 membranes
Assay type: biochemical
Conditions: Sf9 cells expressing adenosine A2a receptor, XLGolf, and β1γ2 dimer
Description: After infection for 48 hours, cells were harvested for membrane preparation. Cells were harvested by centrifugation at 500×g at 4° C. The cell pellets were washed twice with Dulbecco's phosphate-buffered saline (DPBS) at pH 7.4 and suspended in ice-cold 10 mM Tris-HCl with 5 mM EDTA (TE)(pH 7.4) containing a protease inhibitor cocktail (Roche Applied Science, Indianapolis, Ind.) and sonicated. Following centrifugation at 1000×g, membranes were collected from the supernatant by centrifugation at 20,000×g for 30 min at 4° C. The membrane fraction was stored at −80° C. in TE containing 5% glycerol.
Membranes from Sf9 cells expressing the ADORA2A, XLGolf, β1, and γ2 subunits were resuspended in the reaction buffer (20 mM HEPES, pH 7.4, 100 mM NaCl, 10 mM MgCl2, 1 mM EDTA, 1 mM DTT) including protease inhibitor. Agonist-induced [^35S]-GTPγS binding assay was performed for 90 min at room temperature in 96 well-microplates with a volume of 200 μl per well, and containing 5 μg of membranes, agonist at a concentration range of 10^−12 to 10^−4 M, 10 μM GDP, and 400 pM [^35S]-GTPγS. Non-specific binding was determined in the presence of 10 μM unlabeled GTPαS. Incubations were terminated by rapid filtration of the samples throught glass fiber filters (Whatman GF/C). […] Radioactivity was measured using a Packard Bioscience Top Count NXT Microplate Scintillation microplate reader. […]

T1 sequence (P29274 whole entry): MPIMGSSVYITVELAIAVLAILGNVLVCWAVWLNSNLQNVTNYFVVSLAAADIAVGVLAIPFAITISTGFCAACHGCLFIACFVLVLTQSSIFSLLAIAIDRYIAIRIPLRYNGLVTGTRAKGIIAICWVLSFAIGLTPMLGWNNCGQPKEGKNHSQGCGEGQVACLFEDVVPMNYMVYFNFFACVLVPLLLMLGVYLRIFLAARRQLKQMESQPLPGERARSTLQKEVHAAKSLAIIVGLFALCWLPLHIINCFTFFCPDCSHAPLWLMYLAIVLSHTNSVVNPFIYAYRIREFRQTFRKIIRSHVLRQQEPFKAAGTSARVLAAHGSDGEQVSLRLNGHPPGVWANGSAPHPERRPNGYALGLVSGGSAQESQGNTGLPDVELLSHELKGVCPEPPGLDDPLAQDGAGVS

potencies of ADA-resistant adenosine receptor ligands: comparable
Structure (SMILES): Nc1nc(Nc2ccccc2)nc2c1ncn2[C@@H]1O[C@H](CO)[C@@H](O)[C@H]1O [CV1808]
